Patent US12433860B2, “Treatment of multiple sclerosis comprising DHODH inhibitors” (Immunic AG, priority 2021, dated 2025)
Values joined by “and” are separate entries in the source; they are usually repeats but may differ in a detail not shown here. Identical values can stand only once. Counter-ions that a name gives are not always drawn.

Experiments:
[1] = test system: patients with relapsing-remitting multiple sclerosis; assay: EMPhASIS phase 2 trial Cohort 1: MRI lesions up to 24 weeks; type: in vivo, human
Experimental: Study design and participants: […] Eligible patients were randomly assigned in a 1:1:1 ratio by an interactive web response system to receive once-daily vidofludimus calcium (30 mg or 45 mg) or placebo over a 24 week period. Procedures: Participants took vidofludimus calcium (30 mg or 45 mg) or placebo once daily in the morning in a fasted state (before breakfast) for 24 weeks. To minimize the risk of changes to uric acid during the first seven days of dosing (induction phase), the assigned dose (containing vidofludimus calcium 15 mg, vidofludimus calcium 22.5 mg or placebo) was taken days 0-6 and then the full dose thereafter (maintenance phase). Participants underwent standardized brain MRI scans at baseline and every 6 weeks after the first day of dosing until week 24. MRI scans were centrally analyzed by a blinded and independent MRI center. […] In the case of suspected or protocol-defined confirmed relapse, corticosteroid treatment was provided at the discretion of the investigator. Pharmacokinetic and pharmacodynamic measurements were also collected. Outcomes: The primary endpoint was the difference in the cumulative number of combined unique active (CUA) lesions up to week 24 between vidofludimus calcium 45 mg and placebo in the intention-to-treat population (i.e., weeks 6 to 24). The key secondary was the same outcome between vidofludimus calcium 30 mg and placebo. A sensitivity analysis of the primary endpoint and key secondary endpoint was done in the per-protocol population and the modified intention-to-treat population. In addition, prespecified subgroup analyses of the primary endpoint and key secondary endpoint in the intention-to-treat population were done based on baseline demographics (gender, age, weight, country), MRI characteristics (gadolinium-enhancing lesions strata) and clinical characteristics (EDSS score, duration of disease and relapse history). […] Other secondary endpoints included: the difference in the cumulative number of combined unique active lesions up to week 24 between vidofludimus calcium 45 mg and vidofludimus calcium 30 mg; number or cumulative number of gadolinium-enhancing, T1, or T2 lesions up to 24 weeks; annualized relapse rate from baseline until week 24; proportion of relapse-free patients up to week 24; time-to-first relapse; change in EDSS score from baseline; proportion of patients with EDSS score progression; brain atrophy and other MRI endpoints; and safety and tolerability as assessed by the investigators. Annualized relapse rate was defined as the total number of confirmed relapses divided by the real exposure time in years assessed over the time during the double-blind treatment period. EDSS progression was defined as an increase compared to baseline of at least 1.0 point for patients with a baseline EDSS score of 1.0 to 4.0 or of at least 1.5 points for patients with a baseline EDSS score of 0. Vidofludimus calcium trough concentrations (weeks 6 and 24) were used to assess the correlation between pharmacokinetics and MRI-based assessments. The effects of vidofludimus calcium on serum neurofilament (baseline and week 24) were also analyzed. Statistical analysis: The primary and secondary efficacy endpoints were analyzed using a generalized linear model with a negative binomial distribution and a logarithmic link function. Independent effects included in the model were: treatment group; baseline volume of T2 lesions; MRI field strength; and baseline number of gadolinium-enhancing lesions. The natural log transformation of the time from the first dose to the date of the last MRI assessment was included as an offset term to account for different lengths of treatment.

[2] = test system: patients with RRMS and evidence of active disease; assay: EMPhASIS Cohort 2 interim analysis: MRI lesions up to Week 12; type: in vivo, human
Experimental: Given the relative equal performance of the two doses in Cohort 1 (see Example 1) and to allow for pharmacodynamic modeling of the dose-response relationship, a lower dose was investigated. The objective of the Cohort 2 sub-trial is to obtain exploratory data on the dose response of IMU-838 by evaluating a lower IMU-838 dose i.e. 10 mg/day to provide additional data for pharmacodynamic modelling. The 10 mg IMU-838 dose was selected since it is more than 50% lower than the lowest effective dose of Cohort 1 (30 mg IMU 838) and avoids undesired overlap in serum trough levels for pharmacodynamic modelling of the pooled Cohort 1 and 2 data. A small placebo arm is included to provide blinding of patients and to relate Cohort 2 treatment effects. Assessments and procedures mostly follow those described for the main treatment period in the Cohort 1 main trial. Trial objectives and endpoints: The objective of this sub-trial is to obtain more efficacy and safety data of IMU-838 in patients with RRMS and to allow pharmacodynamic modelling of the dose response. The endpoints analyzed in this interim analysis were between-treatment differences in the following MRI parameters: cumulative number of CUA MRI lesions up to Week 12; cumulative number of new Gadolinium enhancing (Gd+) lesions up to Week 12; proportion of patients without CUA MRI lesions until Week 12; and proportion of patients without new Gd+ lesions until Week 12. Overall trial design and plan: This is a double-blind, placebo-controlled, randomized, parallel-group sub-trial of P2 IMU-838 MS to assess the efficacy and safety of once-daily oral 10 mg/day IMU-838 compared to placebo in patients with RRMS and evidence of active disease. The sub-trial consists of a blinded main treatment period and an open-label, extended treatment period (FIG. 2). Patients were randomized 1:4 to placebo and 10 mg IMU-838 on Day 0.

[3] = test system: patients with relapsing-remitting multiple sclerosis; settings: in vivo
Experimental: (§1) Adverse events were assessed at screening, baseline, day 7, and weeks 6, 12, 18, and 24 and all unscheduled clinic visits. Routine clinical chemistries, haematology, liver function tests, and urinalysis were collected at baseline, day 7, and weeks 6, 12, 18, and 24. Vital signs and electrocardiogramere conducted at screening and regularly scheduled intervals. Adverse events of special interest included: red blood cells in urine, haematuria, and retroperitoneal colicky pain with suspected or confirmed nephrolithiasis.
(§2) The intention-to-treat population was defined as all randomized patients who received at least one dose of placebo or vidofludimus calcium and were analyzed by the groups to which they were randomized. The safety population included all randomized patients who received at least one dose of placebo or vidofludimus calcium and was analyzed by the treatment assigned. The per-protocol population was defined as all randomized patients receiving at least one dose of placebo or vidofludimus calcium and no violations of major protocol criteria during treatment. The modified intention-to-treat population was defined as all randomized patients receiving at least one dose of placebo or vidofludimus calcium and having all MRI scans available for analysis.

[4] = in vivo; cited from earlier work
[5] = biological target: human DHODH (Homo sapiens, UniProt Q02127); settings: cited from earlier work
[6] = test system: secretion of interleukin (IL)-17 and IFNγ; settings: in vitro; cited from earlier work
[7] = test system: experimental autoimmune encephalomyelitis; settings: rodents; cited from earlier work
[8] = test system: patients with relapsing-remitting multiple sclerosis; assay: EMPhASIS Cohort 1: safety and tolerability; settings: for proportion of patients with at least one treatment-emergent adverse event: 24 weeks, placebo 44%; for patients who discontinued the study treatment prematurely: placebo 7%
Experimental: as §1, §2

Sequence of human DHODH (Q02127 whole entry): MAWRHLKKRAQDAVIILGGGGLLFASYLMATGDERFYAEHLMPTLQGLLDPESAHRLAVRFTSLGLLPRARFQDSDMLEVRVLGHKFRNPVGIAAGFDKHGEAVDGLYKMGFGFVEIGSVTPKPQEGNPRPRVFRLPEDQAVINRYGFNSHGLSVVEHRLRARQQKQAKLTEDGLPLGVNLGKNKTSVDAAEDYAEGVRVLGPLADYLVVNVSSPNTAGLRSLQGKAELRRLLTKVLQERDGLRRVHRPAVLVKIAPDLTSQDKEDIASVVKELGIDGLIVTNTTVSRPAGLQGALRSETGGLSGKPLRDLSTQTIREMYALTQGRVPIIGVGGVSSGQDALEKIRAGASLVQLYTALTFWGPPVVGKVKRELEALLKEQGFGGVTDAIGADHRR

In the case of COc1cccc(-c2ccc(NC(=O)C3=C(C(=O)O)CCC3)c(F)c2)c1 [vidofludimus calcium, 1-cyclopentene-1-carboxylic acid, 2-(((3-fluoro-3′-methoxy(1,1′-biphenyl)-4-yl)amino)carbonyl)-, calcium salt (2:1)], the “suppression of MRI activity” value ([1]; 30 mg dose, after 24-weeks of treatment, rrMS) is reported as 70%, the “cumulative number of new gadolinium-enhancing lesions at week 24” value ([1]; 30 mg once daily) is reported as 4.5 (95% Cl 2.7-7.7) and the “Cumulative CUA lesions up to 24 weeks, adjusted mean (95% CI)” value (from here on “Cumulative CUA lesions up … (95% CI)”) ([1]; 30 mg once daily, key secondary endpoint analysis (30 mg vs placebo), intention-to-treat) is reported as 4.0 (2.2-7.2). The “Cumulative CUA lesions up … (95% CI)” value ([1]; 30 mg once daily, secondary endpoint analysis (45 mg vs 30 mg), intention-to-treat) was 4.2 (2.5-7.1), the “Rate ratio, cumulative CUA lesions up to 24 weeks” value (“Rate ratio” for short) ([1]; 30 mg vs placebo, intention-to-treat) was 0.30 and the “cumulative number of new gadolinium-enhancing lesions at week 24” value ([1]; 45 mg once daily) was 4.0 (95% Cl 2.1-7.8). For the same compound, the “Cumulative CUA lesions up … (95% CI)” value ([1]; 45 mg once daily, primary endpoint analysis (45 mg vs placebo), intention-to-treat) was 2.4 (1.1-4.9), the “Cumulative CUA lesions up … (95% CI)” value ([1]; 45 mg once daily, secondary endpoint analysis (45 mg vs 30 mg), intention-to-treat) was 4.4 (2.4-8.1) and the “Rate ratio” value ([1]; 45 mg vs placebo, intention-to-treat) was 0.38. The “Rate ratio” value ([1]; secondary endpoint (45 mg vs 30 mg), printed in the 30 mg line) was 0.96, the “suppression of CUA lesions at Week 12 compared with placebo” value ([2]; 10 mg) was 32% and the “Cumulative number of CUA MRI lesions up to Week 12, Mean” value ([2]; 10 mg (C2), mFAS, placebo 4.4) was 3.0. The “Patients without CUA MRI lesions over 12 weeks” value ([2]; 10 mg (C2), mFAS, placebo 41.4, listed as IMU-838) was 46% and 45.7%, the “Patients without New Gd+ lesions over 12 weeks” value ([2]; 10 mg (C2), mFAS, placebo 49.3, listed as IMU-838) was 51% and 51.1% and the “lowest effective dose in patients with rrMS” value ([2]; totality of Cohort 1 data and Week 12 interim analysis of Cohort 2) was 30 mg. For the same compound, the “deaths during the trial” value [3] was “No deaths occurred”, the half-life [4] was “approximately 30 h” and the “potency against human DHODH” value [5] was “submicromolar potency”. For the same compound, the “secretion of interleukin (IL)-17 and IFNγ” value [6] was “inhibited”, the “activity in experimental autoimmune encephalomyelitis” value [7] was “dose-dependent activity” and the “patients experiencing serious adverse events” value ([8]; 30 mg group, considered unrelated to treatment) was 2 patients. For the same compound, the “proportion of patients with at least one treatment-emergent adverse event” value ([8]; 30 mg) was 45%, the “patients who discontinued the study treatment prematurely” value ([8]; 30 mg) was 3% and the “patients who met hepatotoxicity stopping rules” value ([8]; 45 mg group) was “two”. For the same compound, the “proportion of patients with at least one treatment-emergent adverse event” value ([8]; 45 mg) was 41%, the “patients who discontinued the study treatment prematurely” value ([8]; 45 mg) was 6% and the Serious adverse events ([8]; across treatment groups) was 0-3%. For the same compound, the “Renal treatment-emergent events, patients” value ([8]; any dose, placebo 1%) was 2%, the “Hepatic treatment-emergent adverse events, patients” value ([8]; any dose, placebo 4%) was 4% and the “Adverse events of special interest, patients” value ([8]; any dose, ureterolithiasis, placebo 1%) was 1%. The tolerability ([8]; both doses (30 mg and 45 mg)) was “well tolerated”, the “cardiovascular, haematological, infectious or malignancy-related adverse events” value ([8]; in vivo) was “No remarkable cardiovascular, haematological, infectious or malignancy-related adverse events” and the “changes in haematologic laboratory values (neutrophil, lymphocyte, leukocyte count)” value ([8]; in vivo) was “No changes”. For the same compound, the “changes in serum uric acid” value ([8]; over 24 weeks, any treatment group) was “No marked changes”, the “discontinuations attributable to treatment-emergent adverse events” value ([8]; vidofludimus calcium groups, placebo n=3) was 2 patients and the “Alopecia, fatigue, rash, and cystitis treatment-emergent adverse events not recorded in placebo-treated patients” value ([8]; vidofludimus calcium-treated patients) was 1-4%.
